Assay [1] has as its system chloroquine (CQ) sensitive (3D7) strain of P. falciparum. Kind of assay: antimalarial activity against 3D7 compared to propafenone (data not shown). The assay is classed as cell-based.
Assay [2] concerns P. falciparum NF54 (CQ sensitive). In words: [3H]-hypoxanthine incorporation assay, NF54 strain. The assay is classed as cell-based. The settings on record: Plasmodium falciparum, values marked with asterisk: [3H]-hypoxanthine assay, read-out: IC50 growth inhibition NF54*.
The test system of assay [3] is P. falciparum K1 (CQ-resistant). In words: [3H]-hypoxanthine incorporation assay, K1 strain. It counts as cell-based. To be noted: Plasmodium falciparum, values marked with asterisk: [3H]-hypoxanthine assay, read-out: IC50 growth inhibition K1 (*).
Assay [4] has as its system P. berghei, ANKA strain, GFP MRA-865. In words: P. berghei rodent malaria 4-day suppressive test. The assay is classed as in vivo, Plasmodium berghei. The settings on record: NMRI mice, 30 mg/kg 4x i.p.; for % activity (percent reduction of parasitemia) / % of control: day 4; for avg.Day 4 (parasitemia): day 4 (96 h post-infection); for % of control: control group taken as 100%. How it is done:
Primary biological assessment of in vivo antimalarial efficacy of the compounds of the present invention was assessed using the P. berghei rodent malaria 4-day suppressive test as recently described (14) (parasite: P. berghei, ANKA strain, GFP MRA-865; mice: NMRI mice, SPF, females, 25±2 g. free from Eperythrozoon coccoides and Haemobartonella muris). The experimental groups were treated with a single dose of compounds of the present invention (30 mg/kg) by the i.p. route. The compounds were prepared at an appropriate concentration, as a solution or suspension containing 7% Tween80/3% ethanol. Day 1 to 3 (24 h, 48 h and 72 h post-infection), the experimental groups of mice were treated again with the same dose and by the same route as on day 0. Day 4 (24 h after the last treatment, i.e. 96 h post-infection), blood smears from all animals are prepared and stained with Giemsa. Parasitemia was determined as described elsewhere (14). The difference between the mean value of the control group (taken as 100%) and those of the experimental groups was calculated and expressed as percent reduction (=activity).
Indicated in TABLE 3 below are the percent reduction values for growth inhibition of the Plasmodium berghei parasite for the compounds of formula I indicated with their formula numbers of TABLE 2. Correlation of the formula numbers and chemical structures are set out in TABLE 1 of the example part.

The subject of assay [5] is P. falciparum 3D7 (CQ-sensitive). Kind of assay: HRP2-based ELISA growth inhibition, 3D7 strain. The assay is classed as cell-based. To be noted: Plasmodium falciparum, unmarked values: HRP II ELISA, 72 h. From the text: (§1) Highly sensitive HRP2-based ELISA and [^3H]-hypoxanthine incorporation assay were used as markers for inhibition of parasite growth as previously described (12, 14). A solvent control and a chloroquine (CQ) control were included in the HRP2-based ELISA. CQ, lumefantrine and artesunate were included as controls in the [^3H]-hypoxanthine assay series.
(§2) The assay protocol of the HRP2-based ELISA is described in more detail in the following paragraphs.
(§3) The P. falciparum clones were maintained in continuous culture as described previously (10). Briefly, 3D7 (CQ-sensitive), NF54, and K1 (CQ-resistant) P. falciparum clones were obtained from MR4/American Type Culture Collection, Manassas, Va., USA under the accession numbers MR4-102 (3D7), MRA-1000 (NF54), and MR4-159 (K1). P. falciparum cultures were maintained in 25 cm^2 flasks. Parasites were cultured in RPMI 1640 (Sigma Aldrich, Austria) medium containing 10% human serum at a hematocrit of 5% (blood group 0 negative) at 37° C. under an atmosphere of 5% CO2, 5% O2 and 90% N2. The medium was changed every 24 to 48 hours. The culture was diluted and fresh erythrocytes were added whenever the parasite density reached >1%.
(§4) Stock solutions of compounds of formula I were prepared in DMSO (10 mg/mL). Stock concentrations of chloroquine and lumefantrine always remained 1 mg/mL and were prepared in 70% ethanol. Coating of culture plates with compounds of formula I and controls: 96 wells culture plates were coated as described previously (11). Working standards were prepared by diluting the stock solutions in RPMI1640 to obtain the desired final concentrations. Serial three-fold dilutions (seven concentrations and one drug-free control well) of the drugs (25 μL/well) were dispensed in duplicate into standard 96-well micro culture plates. Chloroquine was included as a reference drug in all experiments.
(§5) After reaching a parasitemia of 5% or higher, 5 mL of cell medium mixture were centrifuged at 700 g for 5 minutes at room temperature (RT). Packed red cells were resuspended in 3 mL of 5% D-sorbitol (Sigma Aldrich, Austria) in water at RT and immediately centrifuged again at 700 g for 5 minutes at RT followed by three washes with 3 mL of RPMI1640 medium. […].
(§6) Samples were diluted with RPMI1640 medium containing 0.5% Albumax II (GIBCO, Invitrogen, Vienna, Austria) by adding uninfected red blood cells to 1.5% hematocrit and 0.05% parasitemia. 150 μL of this cell medium mixture was then added to each well of 96-well plates precoated with test compounds and incubated at 37° C. for 72 hours in a gas mixture containing 5% CO2, 5% O2, and 90% N2. After 72 hours the plates were frozen at −20° C. until the histidine rich protein II assay (23).
(§7) A highly sensitive HRPII ELISA was used based on two commercially available monoclonal antibodies (Immunology Consultants Laboratory, Inc., Newberg, Oreg.) directed against P. falciparum-specific HRPII: MPFM-55A, an immunoglobulin M antibody served as the primary capture antibody and HRP-conjugated MPFG-55P (Immunology Consultants Laboratory, Inc., Newberg, Oreg.) as secondary antibody. The ELISA was employed to assess growth inhibition as a measure of drug susceptibility as previously described. Optical density was measured at 450 nm using a standard ELISA plate reader (12-13).
(§8) Hyperbolic concentration response curves were fitted to the data points by nonlinear least squares using the solver add-in of the Excel software.
(§9) Indicated in TABLE 2 are the IC50 [μM] values for growth inhibition of the 3D7 (NF54) and K1 strains of P. falciparum for the compounds of formula I indicated with their formula numbers in TABLE 2. Unmarked IC50 values for K1 and 3D7 strains of P. falciparum have been determined by HRP II enzyme linked immunosorbent assay (ELISA) as described above. […]

In assay [6] the test system is P. falciparum K1 (CQ-resistant). Kind of assay: HRP2-based ELISA growth inhibition, K1 strain. The assay is classed as cell-based. To be noted: Plasmodium falciparum, unmarked values: HRP II ELISA, 72 h.
Source text: as §1, §2, §3, §4, §5, §6, §7, §8, §9
A general note: An ELISA detects its analyte on a solid surface through an enzyme-linked reagent.

From US20150141437A1, “AMIDOPHENOXYPROPANOLAMINES” (MEDIZINISCHE UNIVERSITÄT WIEN, priority 2012, published 2015) come the findings set out here.

Take `CCCNCC(O)COc1ccccc1C(=O)NCc1ccccc1` (centres unmarked) [aza-propafenone]: the “decrease in IC50-value compared to propafenone (A)” value in assay [1] was “seventy-fold decrease”.
Turning to `Cc1ccc(NC(=O)c2ccccc2OCC(O)CNCC23CC4CC(CC(C4)C2)C3)cc1` (centres unmarked) [Compound I-40, 2-{3-[(Adamantan-1-ylmethyl)-amino]-2-hydroxy-propoxy}-N-p-tolyl-benzamide], the IC50 (in general, the concentration needed to halve the response being measured) in assay [2] was found to be 6 nM. In assay [3], the half-inhibitory concentration (IC50) turned out to be 2 nM. Moreover, in assay [4], the “% activity (percent reduction of parasitemia)” value is recorded as 58.24%, the “avg.Day 4 (parasitemia)” value is 24.90 and the “% of control” value was determined as 41.76%.
`O=C(Nc1ccc(F)cc1)c1ccccc1OCC(O)CNCC12CC3CC(CC(C3)C1)C2` (centres unmarked) [Compound I-55, 2-{3-[(Adamantan-1-ylmethyl)-amino]-2-hydroxy-propoxy}-N-(4-fluoro-phenyl)-benzamide]: the half-inhibitory concentration (IC50) in assay [2] came out at 6 nM. Also, in assay [3], the half-maximal inhibitory concentration (IC50) amounted to 2 nM. For the same molecule, in assay [4], the “% activity (percent reduction of parasitemia)” value was found to be 67.35%, the “avg.Day 4 (parasitemia)” value was 19.47 and the “% of control” value is 32.65%.
Taken in the same sequence, the figures for `O=C(Nc1ccc(F)cc1F)c1ccccc1OCC(O)CNCC12CC3CC(CC(C3)C1)C2` (centres unmarked) [Compound I-39, 2-{3-[(Adamantan-1-ylmethyl)-amino]-2-hydroxy-propoxy}-N-(2,4-difluoro-phenyl)-benzamide] were 9 nM, 3 nM, 49.01%, 30.40 and 50.99%.
With `O=C(NCCc1ccccc1)c1ccccc1OCC(O)CNC1C2CC3CC(C2)CC1C3` (centres unmarked) [Compound I-9, 2-[3-(Adamantan-2-ylamino)-2-hydroxy-propoxy]-N-phenethyl-benzamide], the IC50 in assay [5] was 264 nM; in assay [6] it was 29 nM.
With `O=C(NCc1ccccc1)c1ccccc1OCC(O)CN(CCCc1ccccc1)C1C2CC3CC(C2)CC1C3` (centres unmarked) [Compound I-23, 2-{3-[Adamantan-2-yl-(3-phenyl-propyl)-amino]-2-hydroxy-propoxy}-N-benzyl-benzamide], the figures for the IC50 in assay [5] and in assay [6] were 226 nM and 34 nM, respectively.
As for `O=C(NCc1ccccc1)c1ccccc1OCC(O)CNCC12CC3CC(CC(C3)C1)C2` (centres unmarked) [Compound I-27, 2-{3-[(Adamantan-1-ylmethyl)-amino]-2-hydroxy-propoxy}-N-benzyl-benzamide], the values for the IC50 in assay [5] and in assay [6] were 177 nM and 50 nM, respectively.
In the case of `O=C(Nc1cccc(C(F)(F)F)c1)c1ccccc1OCC(O)CNCC12CC3CC(CC(C3)C1)C2` (centres unmarked) [Compound I-42, 2-{3-[(Adamantan-1-ylmethyl)-amino]-2-hydroxy-propoxy}-N-(3-trifluoromethyl-phenyl)-benzamide], in assay [2], the half-maximal inhibitory concentration (IC50) is 2 nM. For the same molecule, in assay [3], the IC50 turned out to be 0.5 nM. Also, in assay [4], the “% activity (percent reduction of parasitemia)” value was determined as 97.76%, the “avg.Day 4 (parasitemia)” value is 1.33 and the “% of control” value was 2.24%.
Regarding `CCCNC(=O)c1ccccc1OCC(O)CNC1C2CC3CC(C2)CC1C3` (centres unmarked) [Compound I-12, 2-[3-(Adamantan-2-ylamino)-2-hydroxy-propoxy]-N-propyl-benzamide], the figures for the half-inhibitory concentration (IC50) in assay [5] and in assay [6] were 611 nM and 92 nM, respectively.
For `O=C(c1ccccc1)c1ccc(CNCC(O)COc2ccccc2C(=O)NCc2ccccc2)cc1` (centres unmarked) [Compound I-49, 2-[3-(4-Benzoyl-benzylamino)-2-hydroxy-propoxy]-N-benzyl-benzamide], the IC50 is 9300 nM in assay [5] and 3230 nM in assay [6].
For `CCCN(CC(O)COc1ccccc1C(=O)NCc1ccccc1OC)C1C2CC3CC(C2)CC1C3` (centres unmarked) [Compound I-18, 2-[3-(Adamantan-2-yl-propyl-amino)-2-hydroxy-propoxy]-N-(2-methoxy-benzyl)-benzamide] the same measures were 1570 nM and 349 nM.
Taken in the same sequence, the figures for `Cc1ccc(NC(=O)c2ccccc2OCC(O)CNC(C)C23CC4CC(CC(C4)C2)C3)cc1` (centres unmarked) [Compound I-41, 2-[3-(1-Adamantan-1-yl-ethylamino)-2-hydroxy-propoxy]-N-p-tolyl-benzamide] were 70 nM and 12 nM.
